Measurements from patent US20160166572A1, “BENEFICIAL EFFECTS OF Lp-PLA2 INHIBITORS IN TREATMENT OF DIABETIC RETINOPATHY AND AGE-RELATED MACULAR DEGENERATION” (Rowan University, priority 2014, published 2016).

Columns and labels:
porcine retina = test: Cell number in retinal GCL and INL by counting DAPI-positive nuclei, DMHC pigs; type: in vivo, pig; details: Darapladib 10 mg/kg/d orally, 24 weeks, FIG. 3D-E
Description: Briefly, after induction of diabetes by a single injection of Streptozotocin, animals were fed a high cholesterol diet. After a month of DMHC induction and acclimation, animals were randomly segregated to untreated DMHC and Darapladib-treated DMHC groups. Darapladib-treated pigs received 10 mg/kg/d of Darapladib orally. Three of the pigs were spared from DMHC induction and served as age-matched, non-DMHC normal controls. Twenty four weeks after acclimation, animals were euthanized and their brains and eyes were immediately removed. Brains were divided anteroposteriorly into anterior, middle and posterior regions. For each of these brain regions, 2-3 tissue blocks were generated for routine tissue fixation (10% formalin) or freezing and histological processing. The anterior cortical region comprised of anterior ⅔ of frontal lobe and anterior ⅓ of temporal lobe. […] Cells positive for GFAP were counted throughout the whole thickness of the retina, and then quantified using ImagePro7.0 (Media Cybernetics, Silver Spring, Md.). Briefly, a 300×300 pixel square area was randomly made in each retinal section in three contiguous locations across the retina and the positive GFAP area was determined per total area using a fixed threshold. […] Cell number was determined by counting the DAPI-positive nuclei in a fixed area. […]

GFAP = GFAP expression in retina (immunofluorescence), DMHC pigs; type: in vivo, pig; details: Darapladib 10 mg/kg/d orally, 24 weeks
Description: Briefly, after induction of diabetes by a single injection of Streptozotocin, animals were fed a high cholesterol diet. After a month of DMHC induction and acclimation, animals were randomly segregated to untreated DMHC and Darapladib-treated DMHC groups. Darapladib-treated pigs received 10 mg/kg/d of Darapladib orally. Three of the pigs were spared from DMHC induction and served as age-matched, non-DMHC normal controls. Twenty four weeks after acclimation, animals were euthanized and their brains and eyes were immediately removed. Brains were divided anteroposteriorly into anterior, middle and posterior regions. For each of these brain regions, 2-3 tissue blocks were generated for routine tissue fixation (10% formalin) or freezing and histological processing. […] Cells positive for GFAP were counted throughout the whole thickness of the retina, and then quantified using ImagePro7.0 (Media Cybernetics, Silver Spring, Md.). Briefly, a 300×300 pixel square area was randomly made in each retinal section in three contiguous locations across the retina and the positive GFAP area was determined per total area using a fixed threshold. […] Cell number was determined by counting the DAPI-positive nuclei in a fixed area. […] GFAP-positive fluorescence extended from inner to outer limiting membranes in the DMHC group, confirming that GFAP was predominantly being expressed by Müller cells (FIGS. 5A-E). […]

BBB = BBB permeability, IgG binding and Aβ42 deposition in cerebral cortex, animal model of DM and hypercholesterolemia; type: in vivo

For CCN(CC)CCN(Cc1ccc(-c2ccc(C(F)(F)F)cc2)cc1)C(=O)Cn1c(SCc2ccc(F)cc2)nc(=O)c2c1CCC2 [Darapladib], the “cell number (nuclei) in GCL” value (porcine retina) was “comparable to controls”, the “cell number (nuclei) in INL” value (porcine retina) was “comparable to controls” and the “intensity of GFAP immunostaining (GFAP expression) in retina” value (GFAP; FIG. 5D) was “dramatically lower GFAP expression in the retinas of DMHC pigs, it was still significantly higher than in controls”. The “GFAP immunoreactivity, distribution in retina” value (GFAP; compared to DMHC only, FIGS. 5A-C) was “reduced and confined to the GCL”, the “Aβ42 deposition in cortical pyramidal neurons” value (BBB) was “reverse” and the BBB permeability (BBB) was “reverse”. The “IgG binding in cortical pyramidal neurons” value (BBB) was “reverse”.
